Patent US20210283163A1, “COMPOSITIONS AND METHODS FOR THE TREATMENT OF ACUTE AND CHRONIC PRURITIS” (Duke University, priority 2018, published 2021)

Legend:
[1] = test system: naive mice; assay type: in vivo, mouse; details: naive mice; for scratching (itch) after intradermal cheek injection / wiping (pain) after intradermal cheek injection: 1 mM, 5 μL
Method: (§1) Behavioral Assessment for Scratching (Itch) and Wiping (Pain). Mice were shaved on the cheek or nape after a brief anesthesia with isoflurane. Before experiments, mice were habituated in small plastic chambers (14×18×12 cm) daily for two days. The room temperature and humidity remained stable for all the experiments. […] After the injection, the number of scratches in 60 min was counted. A scratch was counted when a mouse lifted its hind paw to scratch the shaved region and returned the paw to the floor or to the mouth. A bout of wiping was defined as a continuous wiping movement with a forepaw directing at the area of the injection area (Shimada and LaMotte, Pain 2008, 139, 681-687). Scratching and wiping behavior was videoed for 30 min or 60 min using Sony HDR-CX610 camera. The video was subsequently played back offline and the numbers of scratches and wipes were quantified in a blinded manner.

[2] = test system: human DRG neurons; experiment: Whole-cell patch clamp, inward currents in human DRG neurons; assay type: cell-based; details: 10 μM; small diameters
Method: Non-diseased human DRGs were obtained from donors through National Disease Research Interchange (NDRI) with permission of exemption from the Duke University Institutional Review Board (IRB). Postmortem L3-L5 DRGs were dissected from 4 donors and delivered in ice cold culture medium to the laboratory at Duke University within 24-72 hr of the donor's death. Upon the delivery, DRGs were rapidly dissected from nerve roots and minced in a calcium-free HBSS (GIBCO). Human DRG cultures were prepared as previously reported (Chang et al., Neurosci. Bull. 2018, 34, 4-12; Han et al., Neuron 2016, 92, 1279-1293). DRGs were digested at 37° C. in a humidified CO2 incubator for 120 min with collagenase Type II (Worthington, 290 units/mg, 12 mg/mL final concentration) and dispase II (Roche, 1 unit/mg, 20 mg/mL) in PBS with 10 mM HEPES, pH adjusted to 7.4 with NaOH. DRGs were mechanically dissociated using fire-polished pipettes, filtered through a 100 μm nylon mesh and centrifuged (500 g for 5 min). The pellet was resuspended, plated on 0.5 mg/mL poly-D-lysine-coated glass coverslips, and grown in Neurobasal medium supplemented with 10% FBS, 2% B-27 supplement, and 1% penicillin/streptomycin. Whole-cell patch-clamp recordings in small (<[…]) human DRG neurons were conducted at room temperature using patch pipettes with resistances of 3-4 MΩ.
Whole-Cell Patch Clamp Recordings in HEK293 Cells, CHO Cells, and DRG Neurons. Whole-cell patch clamp recordings were performed at room temperature using an Axopatch-200B amplifier (Axon Instruments) with a Digidata 1440B (Axon Instruments). In this study, we only examined small-diameter mouse DRG neurons (<25 μM) and small-diameter human DRG neurons (<55 μM). The patch pipettes were pulled from borosilicate capillaries (World Precision Instruments) using a P-97 Flaming/Brown micropipette puller (Sutter Instrument). Pipette resistance was 4-6 MΩ for whole-cell and outside-out recording. […]

[3] = test system: CTCL mice; experiment: Mouse CTCL xenograft model of chronic itch; assay type: in vivo; details: given 20 days after Myla cell inoculation; hsa-miR-711 inhibitor 100 μM, HC030031 200 μM, A967079 50 μM, peptides 2 mM
Method: Mouse CTCL Xenograft Model of Chronic Itch. We developed a murine xenograft model of cutaneous T cell lymphoma (CTCL) using immune-deficient mice (NOD.CB17-Prkdcscid, 8-10 weeks old, male). CD4^+ MyLa cell line was purchased from Sigma (Ca #95051032). The cell line was established from a plaque biopsy of a person with mycosis fungoides stage II by inclusion of IL-2 and IL-4 in the culture medium. CTCL was generated via intradermal injection of CD4^+ Myla cells (1×10^5 cells/μl, 100 μL) on the nape of the neck. Tumor growth was assessed for 40 days by measurements of tumor diameters.
as §1
Generation of Myla Stable Cell Line Expressing miR-711 Inhibitor. CD4^+ Myla cells were plated at a density of 2×10^5 cells/mL in 2 mL culture media in 6-well plates. For each well, 20 μL of the MISSION Lenti microRNA Inhibitor (hsa-miR-711) lentivirus (Sigma) with a titer of 2.6×10^7 Tu/mL were added. Cell mixtures were incubated at 37° C. for 48 hr, washed with PBS three times, and re-suspended in fresh culture media, and 24 hr later, 1 μg/mL puromycin was added to the cells to select stably transduced cell populations. We tried to grow and passage the cells as much as necessary (usually 3 days) and maintained selection pressure by keeping 1 μg/mL puromycin in the medium. After 4 weeks, a large number of the cells were killed; the remaining cells retained the expression of the plasmid, which stably integrates into the genome of the targeted cells. These cells were used for inoculation to generate the CTCL model for testing the effects of miR-711 inhibitor on chronic itch and tumor growth.

[4] = test system: DRG neurons; experiment: Calcium imaging in cultured DRG neurons of Pirt-GCaMP3 mice; assay type: cell-based, mouse; details: histamine 500 μM, CQ 1,000 μM, AITC 200 μM; for DRG neurons showing Ca2+ increase / responses: miR-711 50 μM, 544 neurons from 3 mice
Method: (§2) Primary Cultures of Mouse and Human Sensory Neurons. […] Cells were mechanically dissociated with a flame polished Pasteur pipette in the presence of 0.05% DNase I (Sigma).
(§3) Ca^2+ Imaging. […] The imaging buffer includes 140 mM NaCl, 10 mM D-(+)-Glucose, 1 mM MgCl2, 2 mM CaCl2, 5 mM KCl, 10 mM HEPES, pH=7.4, osmolarity=320 mOsm/L. Calcium signals were measured using green emitted light in a 3 s interval. Ca ^2+ signal amplitudes were presented as ΔF/F0=(Ft−F0)/F0 as ratio of fluorescence difference (Ft−F0) to basal value (F0). The average fluorescence intensity in the baseline period was taken as F0. Ca ^2+ imaging was also analyzed in HEK293-TRPA1 cell line after loading cells with […] fura2-AM (Invitrogen) for 40 min in the Ca^2+ imaging buffer. Ca^2+ imaging protocol was a ratio metric method with 340/380-nm wavelength light for dual excitation. Data were presented as ΔR/R0, determined as the fraction ΔR (Rt−R0) of the increase of a given ratio over baseline ratio (R0).

[5] = test system: TG neurons; experiment: Calcium imaging in TG neurons of Pirt-GCaMP3 mice; assay type: cell-based, mouse; details: histamine 500 μM, CQ 1000 μM, AITC 200 μM; for TG neurons responding (calcium): miR-711 50 μM, 204 neurons
Method: as §2, §3

[6] = test system: mice; experiment: Back model: intradermal nape injection, scratching; assay type: in vivo, mouse; details: 1 mM, 10 μL
Method: as §1

[7] = molecular target: hTRPA1 (Homo sapiens, UniProt O75762); experiment: Whole-cell patch clamp, inward currents in HEK293 cells expressing hTRPA1; assay type: cell-based; details: bath application; miRNAs and core sequence 10 μM, AITC 50 μM
Method: Cell Culture and Transfection. CD4^+ Myla cell line was cultured in RPMI 1640 media (GIBCO), supplemented with 2 mM Glutamine (GIBCO), 100 U/mL IL-2 (Sigma), 100 U/mL IL-4 (Sigma), and 10% human AB serum (Sigma). HuT 102 cell line was cultured in RPMI 1640 supplemented with pyruvate, HEPES, and 10% (v/v) fetal bovine serum (HyClone). HEK293-hTRPA1 stable cell line was cultured in MEM (GIBCO) containing 2 mM Glutamine, 4 μg/mL Blasticidin, 10% FBS (v/v). B16 and CHO cells were cultured in high glucose (4.5 g/L) Dulbecco's Modified Eagle's Medium (GIBCO) containing 10% (v/v) fetal bovine serum (GIBCO). Culture media were supplemented with 50 units/mL of penicillin and 50 μg/mL streptomycin, and cultures were maintained with 5% CO2 in 37° C. incubator. Transfection (2 μg cDNA) was performed with Lipofectamine™ 2000 Reagent (Invitrogen) at 80% confluency and the transfected cells were cultured in the same media for 48 hr before electrophysiological and biochemical studies.
Whole-Cell Patch Clamp Recordings in HEK293 Cells, CHO Cells, and DRG Neurons. Whole-cell patch clamp recordings were performed at room temperature using an Axopatch-200B amplifier (Axon Instruments) with a Digidata 1440B (Axon Instruments). In this study, we only examined small-diameter mouse DRG neurons (<25 μM) and small-diameter human DRG neurons (<55 μM). The patch pipettes were pulled from borosilicate capillaries (World Precision Instruments) using a P-97 Flaming/Brown micropipette puller (Sutter Instrument). Pipette resistance was 4-6 MΩ for whole-cell and outside-out recording. For inward current recordings in mouse and human DRG neurons, HEK293 cells, and CHO cells, the internal solution contains (in mM): 140 CsCl, 10 EGTA, 10 HEPES, and 2 Mg-ATP, adjusted to pH 7.3 with CsOH. Whole cell recordings were performed in an extracellular solution that contains (in mM): 140 NaCl, 5 KCl, 2 MgCl2, 10 HEPES, and 10 glucose, adjusted to pH 7.4 with NaOH and osmolarity to 300-310 mOsm. […] Action potential recordings were performed in small-diameter DRG neurons, with the following solutions: i) internal pipette solution contains: 126 mM K-gluconate, 10 mM NaCl, 1 mM MgCl2, 10 mM EGTA, 10 mM HEPES and 2 mM Na-ATP, adjusted to pH 7.4 with KOH and osmolarity to 295-300 mOsm), and ii) extracellular solution contains: 140 mM NaCl, 5 mM KCl, 2 mM MgCl2, 2 mM CaCl2, 10 mM HEPES, 10 mM glucose, adjusted to pH 7.4 with KOH.

Sequence of hTRPA1 (O75762 whole entry): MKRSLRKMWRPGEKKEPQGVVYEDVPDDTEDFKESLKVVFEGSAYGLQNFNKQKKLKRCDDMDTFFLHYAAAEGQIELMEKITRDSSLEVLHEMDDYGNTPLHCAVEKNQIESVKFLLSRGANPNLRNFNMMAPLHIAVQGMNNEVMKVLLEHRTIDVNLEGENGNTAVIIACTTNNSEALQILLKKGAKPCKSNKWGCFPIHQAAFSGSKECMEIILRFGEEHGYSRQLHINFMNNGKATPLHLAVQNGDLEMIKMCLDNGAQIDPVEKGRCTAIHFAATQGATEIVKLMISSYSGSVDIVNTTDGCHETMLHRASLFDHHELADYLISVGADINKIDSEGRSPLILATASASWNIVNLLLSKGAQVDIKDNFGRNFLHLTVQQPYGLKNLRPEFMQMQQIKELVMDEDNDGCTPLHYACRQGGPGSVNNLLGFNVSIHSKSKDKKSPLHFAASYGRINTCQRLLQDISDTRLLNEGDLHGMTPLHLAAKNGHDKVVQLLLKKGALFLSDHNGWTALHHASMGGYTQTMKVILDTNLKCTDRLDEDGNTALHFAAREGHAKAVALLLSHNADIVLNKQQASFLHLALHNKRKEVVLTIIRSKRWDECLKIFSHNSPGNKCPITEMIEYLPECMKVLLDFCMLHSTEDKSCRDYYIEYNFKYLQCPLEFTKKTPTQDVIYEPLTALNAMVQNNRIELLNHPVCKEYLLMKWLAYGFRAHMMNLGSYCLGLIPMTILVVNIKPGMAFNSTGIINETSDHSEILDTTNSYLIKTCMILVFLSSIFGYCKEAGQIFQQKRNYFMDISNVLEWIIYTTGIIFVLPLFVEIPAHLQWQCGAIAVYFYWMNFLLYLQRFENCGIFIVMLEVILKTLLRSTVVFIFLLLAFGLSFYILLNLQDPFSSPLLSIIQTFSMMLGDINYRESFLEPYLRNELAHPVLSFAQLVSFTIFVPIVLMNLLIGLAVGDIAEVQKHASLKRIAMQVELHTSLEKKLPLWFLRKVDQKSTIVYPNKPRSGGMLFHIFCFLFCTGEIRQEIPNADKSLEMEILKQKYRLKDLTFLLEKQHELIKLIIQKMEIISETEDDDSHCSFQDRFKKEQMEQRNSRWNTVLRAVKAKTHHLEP

hsa-miR-642b-3p: hsa-miR-642b-3p: agacacauuuggagagggaccc (SEQ ID NO: 10) (AGACACAUUUGGAGAGGGACCC; listed as RNA, chemistry not given here)
scratching (itch) after intradermal cheek injection [1]: resulted in pruritus | wiping (pain) after intradermal cheek injection [1]: failed to elicit wiping | inward currents in human DRG neurons [2]: induced similar inward currents

m2: mutant of miR-711: gggaaaaggggagagauguaag (SEQ ID NO: 12) (GGGAAAAGGGGAGAGAUGUAAG; listed as RNA, chemistry not given here)
scratching (itch) after intradermal cheek injection [1]: marked reduction in scratching

CC(C)c1ccc(NC(=O)Cn2cnc3c2c(=O)n(C)c(=O)n3C)cc1 [HC30031, 2-(1,3-Dimethyl-2,6-dioxo-1,2,3,6-tetrahydro-7H-purin-7-yl)-N-(4-isopropylphenyl)acetamide]
effect on CTCL-evoked chronic itch [3]: suppressed

NCCc1c[nH]cn1 [histamine]
miR-711-responsive DRG neurons that also responded [4]: 61.9% | DRG neurons showing Ca2+ increase / responses [4]: 5.5% | miR-711-responsive TG neurons that also responded [5]: 52% | TG neurons responding (calcium) [5]: 6.9%

CCN(CC)CCCC(C)Nc1ccnc2cc(Cl)ccc12 (centres unmarked) [CQ, chloroquine]
miR-711-responsive DRG neurons that also responded [4]: 66.7% | DRG neurons showing Ca2+ increase / responses [4]: 5.1% | miR-711-responsive TG neurons that also responded [5]: 76% | TG neurons responding (calcium) [5]: 9.3%

miR-155: mmu-miR-155: uuaaugcuaauugugauaggggu (SEQ ID NO: 7) (UUAAUGCUAAUUGUGAUAGGGGU; listed as RNA, chemistry not given here)
wiping (pain) after intradermal cheek injection [1]: Neither did | scratching after intradermal injection on the nape of neck [6]: no effects

GGGACCC: mmu-miR-711 core: gggaccc (SEQ ID NO: 1) (listed as RNA, chemistry not given here)
scratching after intradermal injection of 7-nucleotide oligos [1]: sufficient to elicit scratching | wiping after intradermal injection of 7-nucleotide oligos [1]: not wiping | inward currents [7]: inward currents induced

m1: mutant of miR-711: aaaacccggggagagauguaag (SEQ ID NO: 11) (AAAACCCGGGGAGAGAUGUAAG; listed as RNA, chemistry not given here)
scratching (itch) after intradermal cheek injection [1]: marked reduction in scratching

hsa-miR-711: hsa-miR-711: gggacccagggagagagacguaag (SEQ ID NO: 9) (GGGACCCAGGGAGAGAGACGUAAG; listed as RNA, chemistry not given here)
scratching (itch) after intradermal cheek injection [1]: able to evoke pruritus | wiping (pain) after intradermal cheek injection [1]: failed to elicit wiping | inward currents in human DRG neurons [2]: evoked TRPA1-dependent inward currents

miR-326: mmu-miR-326: gggggcagggccuuugugaaggcg (SEQ ID NO: 8) (GGGGGCAGGGCCUUUGUGAAGGCG; listed as RNA, chemistry not given here)
wiping (pain) after intradermal cheek injection [1]: Neither did | scratching after intradermal injection on the nape of neck [6]: no effects

AAAAAAA: Mmu-miR-711 mutant: aaaaaaa (SEQ ID NO: 17) (listed as RNA, chemistry not given here)
scratching after intradermal injection of 7-nucleotide oligos [1]: did not affect | wiping after intradermal injection of 7-nucleotide oligos [1]: did not affect
